Data from ChEMBL document CHEMBL4130426, “Namalides B and C and Spumigins K-N from the Cultured Freshwater Cyanobacterium Sphaerospermopsis torques-reginae” (J Nat Prod, 2017).
The source made the active and inactive calls. The calls are words filed in the database; no cut-off is given here.

Assays:
[1] = biological target: T1, Prothrombin (Homo sapiens, UniProt P00734); assay: Inhibition of thrombin (unknown origin) up to 150 to 350 uM using N-benzoyl-Phe-Val-Arg-p-nitroanilide hydrochloride as substrate pretreated for 5 mins followed by substrate addition measured after 30 mins by colorimetric method
[2] = biological target: T1, Prothrombin; assay: Inhibition of thrombin (unknown origin) using N-benzoyl-Phe-Val-Arg-p-nitroanilide hydrochloride as substrate pretreated for 5 mins followed by substrate addition measured after 30 mins by colorimetric method
[3] = biological target: T2, Carboxypeptidase A1 (Bos taurus, UniProt P00730); assay: Inhibition of bovine pancreas carboxypeptidase A using N-4-(methoxyphenylazoformyl)-Phe-OH as substrate measured after 5 mins by colorimetric method
T2 sequence (P00730 whole entry): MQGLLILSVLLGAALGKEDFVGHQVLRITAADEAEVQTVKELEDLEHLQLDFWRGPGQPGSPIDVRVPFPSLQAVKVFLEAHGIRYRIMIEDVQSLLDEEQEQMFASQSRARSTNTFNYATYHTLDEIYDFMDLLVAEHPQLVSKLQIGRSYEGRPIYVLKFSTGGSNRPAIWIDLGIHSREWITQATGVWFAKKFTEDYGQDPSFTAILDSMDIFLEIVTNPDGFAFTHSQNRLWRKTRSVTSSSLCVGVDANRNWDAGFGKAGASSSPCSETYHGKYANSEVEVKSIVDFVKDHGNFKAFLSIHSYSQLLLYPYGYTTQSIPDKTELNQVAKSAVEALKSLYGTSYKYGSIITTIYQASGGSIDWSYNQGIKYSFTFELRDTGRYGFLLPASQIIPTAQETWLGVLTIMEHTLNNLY

[4] = biological target: T3, Chymotrypsin-C (Homo sapiens) (UniProt Q99895); assay: Inhibition of human pancreas chymotrypsin C up to 0.78 mM using N-succinyl-Ala-Ala-Pro-Phe p-nitroanilide as substrate pretreated for 5 mins followed by substrate addition measured after 30 mins by colorimetric method
T3 sequence (whole entry): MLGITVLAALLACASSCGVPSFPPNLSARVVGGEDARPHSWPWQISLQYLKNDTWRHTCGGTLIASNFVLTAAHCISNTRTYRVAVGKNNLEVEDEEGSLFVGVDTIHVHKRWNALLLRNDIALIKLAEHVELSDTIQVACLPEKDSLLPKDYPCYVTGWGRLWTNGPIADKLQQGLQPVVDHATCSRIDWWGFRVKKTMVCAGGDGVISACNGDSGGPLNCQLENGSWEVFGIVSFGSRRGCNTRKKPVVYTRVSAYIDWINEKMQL

Row | Structure (SMILES) | inhibition [1] | IC50 [2] [µM] | IC50 [3] [µM] | inhibition [4]
1 | CC1C[C@@H](C(=O)N[C@H](CO)CCCNC(=N)N)N(C(=O)[C@@H](Cc2ccc(O)cc2)NC(=O)C(O)CCc2ccc(O)cc2)C1 (stereo partly drawn) | inactive | – | – | –
2 | N=C(N)NCCC[C@H](CO)NC(=O)[C@@H]1CCCN1C(=O)[C@@H](Cc1ccc(O)cc1)NC(=O)C(O)CCc1ccc(O)cc1 (stereo partly drawn) | – | 250 | – | –
3 | CC1C[C@@H](C(=O)N[C@@H](CO)CCCNC(=N)N)N(C(=O)[C@@H](Cc2ccc(O)cc2)NC(=O)C(O)CCc2ccc(O)cc2)C1 (stereo partly drawn) | inactive | – | – | –

Second part, the compound after the results:

Row | inhibition [1] | IC50 [2] [µM] | IC50 [3] [µM] | inhibition [4] | Structure (SMILES)
4 | – | 250 | – | – | N=C(N)NCCC[C@@H](CO)NC(=O)[C@@H]1CCCN1C(=O)[C@@H](Cc1ccc(O)cc1)NC(=O)C(O)CCc1ccc(O)cc1 (stereo partly drawn)
5 | – | – | 2 | inactive | CC[C@@H](C)[C@H](NC(=O)N[C@@H]1CCCCNC(=O)[C@H](CCc2ccc(O)cc2)NC(=O)[C@H](C(C)C)NC1=O)C(=O)O
6 | – | – | 0.75 | inactive | CC[C@@H](C)[C@H](NC(=O)N[C@@H]1CCCCNC(=O)[C@H](CCc2ccc(O)cc2)NC(=O)[C@H]([C@H](C)CC)NC1=O)C(=O)O
